Results taken from publication PMC3388080 (PLoS ONE, 2012).
pKi: −log10 of the molar value.

Assays:
[1] = molecular target: T1, TRH1 (h) (Homo sapiens, UniProt P34981); experiment: CEREP radioligand binding; conditions: % of control specific binding
T1 construct: purchased CEREP
Experimental: (§1) SB-334867 was evaluated in a selectivity screen performed at CEREP (Paris, France). The screen consisted of binding assays on a panel of 79 target receptors. The specific binding (SB) of a radioligand to each target receptor was defined as the difference between the total binding and the nonspecific binding determined in the presence of a cold competitor in excess. […] Details on the CEREP screen are available from www.cerep.fr.

[2] = molecular target: T2, 5-HT2C (h) (Homo sapiens, UniProt P28335); experiment: CEREP radioligand binding
T2 construct: purchased CEREP
T2 sequence (P28335 33-458): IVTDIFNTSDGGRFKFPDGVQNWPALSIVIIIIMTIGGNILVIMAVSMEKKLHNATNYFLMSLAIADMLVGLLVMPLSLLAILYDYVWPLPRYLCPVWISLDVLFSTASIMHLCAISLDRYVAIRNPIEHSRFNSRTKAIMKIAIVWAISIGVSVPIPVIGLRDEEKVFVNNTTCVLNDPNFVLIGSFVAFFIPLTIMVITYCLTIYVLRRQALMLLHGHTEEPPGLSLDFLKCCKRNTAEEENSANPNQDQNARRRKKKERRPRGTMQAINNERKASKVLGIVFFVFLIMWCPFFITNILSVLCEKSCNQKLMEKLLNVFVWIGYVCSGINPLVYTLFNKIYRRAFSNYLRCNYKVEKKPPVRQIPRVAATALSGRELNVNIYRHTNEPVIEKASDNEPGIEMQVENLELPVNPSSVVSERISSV
Experimental: as §1

[3] = test system: Ca2+ channel (L, verapamil site) (phenylalkylamines); experiment: CEREP radioligand binding; conditions: % of control specific binding
Experimental: as §1

[4] = molecular target: T3, MT1 (h) (Homo sapiens, UniProt P48039); experiment: CEREP radioligand binding; conditions: % of control specific binding
T3 construct: purchased CEREP
T3 sequence (P48039 whole entry): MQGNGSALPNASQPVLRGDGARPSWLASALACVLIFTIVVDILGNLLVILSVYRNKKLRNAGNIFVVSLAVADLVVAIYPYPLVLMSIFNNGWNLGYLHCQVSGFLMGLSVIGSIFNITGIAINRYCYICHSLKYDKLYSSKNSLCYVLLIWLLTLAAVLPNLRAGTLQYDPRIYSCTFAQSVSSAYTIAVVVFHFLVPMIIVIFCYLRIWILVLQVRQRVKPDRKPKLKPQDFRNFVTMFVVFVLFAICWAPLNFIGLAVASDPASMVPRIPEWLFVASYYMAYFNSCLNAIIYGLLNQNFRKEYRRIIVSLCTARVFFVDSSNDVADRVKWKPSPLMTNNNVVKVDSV
Experimental: as §1

[5] = molecular target: T4, M3 (h) (Homo sapiens, UniProt P20309); experiment: CEREP radioligand binding; conditions: % of control specific binding
T4 construct: purchased CEREP
T4 sequence (P20309 whole entry): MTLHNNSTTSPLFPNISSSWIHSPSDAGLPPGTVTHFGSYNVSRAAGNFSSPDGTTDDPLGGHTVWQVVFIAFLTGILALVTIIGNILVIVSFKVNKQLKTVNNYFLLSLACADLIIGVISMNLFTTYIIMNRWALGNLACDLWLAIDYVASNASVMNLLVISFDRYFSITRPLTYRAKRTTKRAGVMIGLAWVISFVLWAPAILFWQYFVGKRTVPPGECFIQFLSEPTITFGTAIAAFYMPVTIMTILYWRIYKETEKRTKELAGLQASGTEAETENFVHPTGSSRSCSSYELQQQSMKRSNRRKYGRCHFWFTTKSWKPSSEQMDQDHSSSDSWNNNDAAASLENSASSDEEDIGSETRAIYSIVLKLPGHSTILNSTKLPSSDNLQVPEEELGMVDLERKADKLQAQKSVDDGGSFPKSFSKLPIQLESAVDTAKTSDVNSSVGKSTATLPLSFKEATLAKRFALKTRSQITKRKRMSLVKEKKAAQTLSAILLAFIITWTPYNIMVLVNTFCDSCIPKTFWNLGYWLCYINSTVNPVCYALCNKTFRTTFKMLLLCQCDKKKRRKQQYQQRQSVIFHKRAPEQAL
Experimental: as §1

[6] = molecular target: T5, TRH1 (h) (antagonist effect) (Homo sapiens, UniProt P34981); experiment: CEREP screen, antagonist effect; format: biochemical; conditions: % of control
T5 construct: purchased CEREP
T5 sequence (P34981 whole entry): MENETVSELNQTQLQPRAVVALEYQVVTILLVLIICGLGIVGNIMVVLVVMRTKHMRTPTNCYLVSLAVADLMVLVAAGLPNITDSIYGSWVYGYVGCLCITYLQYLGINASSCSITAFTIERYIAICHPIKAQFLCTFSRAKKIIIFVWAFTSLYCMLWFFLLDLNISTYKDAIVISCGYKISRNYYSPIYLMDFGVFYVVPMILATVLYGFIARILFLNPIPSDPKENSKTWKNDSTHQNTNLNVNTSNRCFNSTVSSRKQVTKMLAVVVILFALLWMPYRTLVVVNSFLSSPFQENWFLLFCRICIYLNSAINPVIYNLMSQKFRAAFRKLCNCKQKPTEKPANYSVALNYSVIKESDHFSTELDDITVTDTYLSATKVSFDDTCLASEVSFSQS
Experimental: as §1

[7] = test system: TNF-alpha (h); experiment: CEREP radioligand binding; parameters: species or system human; conditions: % of control specific binding
Experimental: as §1

[8] = molecular target: hHCRTR2; parameters: method as in PMID 9821961; conditions: 37°C; cited from earlier work
[9] = in vivo; conditions: male, Sprague-Dawley, rat
Experimental: This study was performed at F. Hoffmann-La Roche. Sixty-five male Sprague-Dawley rats, housed 5 per cage (light onset: 12∶00), were injected intraperitoneally (ip) with either vehicle (1.25% hydroxypropyl methylcellulose (HPMC), 0.1% docusate sodium) or almorexant (30 mg/kg in 1.25% HPMC, 0.1% docusate sodium) at the mid-dark phase (ZT18; i.e., 6 h after lights-off), and returned to their home cage. Groups (n = 5 per group) of vehicle- or almorexant-treated animals were then sacrificed by decapitation 0.5, 2, 4, 8 or 12 h after the injection. An extra group of non-injected rats (n = 5) was also sampled at ZT18. Plasma was collected and stored at −80°C until assayed. Brains were rapidly dissected, frozen on dry ice, and stored at −80°C. Series of coronal brain sections (14 µm) were cut in a cryostat through the posterior hypothalamus (tuberomammillary nucleus level: 3.8 to 4.2 mm posterior to bregma) and the brain stem (dorsal raphe nucleus level: 7.3 to 8 mm posterior to bregma; locus coeruleus level: −9.3 to −10 mm posterior to bregma), thaw-mounted (6 sections per slide) and stored at −20°C. After sectioning, the remaining pieces of brain were kept at −80°C for later determination of almorexant brain concentration. The brain and plasma concentrations of almorexant were determined by quantitative liquid chromatography/mass spectrometry/mass spectrometry (LC/MS/MS).

T1 sequence (P34981 whole entry): as above

Structure (SMILES) | % Control (10 µM) Mean SB [1] [%] | displacement of specific binding ([2]; 10 µM, 5HT2C (serotonin 2C)) [%] | % Control (10 µM) Mean SB ([2]; % of control specific binding) [%] | % Control (10 µM) Mean SB [3] [%] | % Control (10 µM) Mean SB [4] [%] | % Control (10 µM) Mean SB [5] [%] | % Control (10 µM) Mean SB [6] [%] | % Control (10 µM) Mean SB [7] [%] | pKi [8] | time at which half-maximal concentrations were achieved [9] | Kp at 0.5 h ([9]; ip, 30 mg/kg)
Cc1nc2ccc(NC(=O)Nc3ccnc4cccnc34)cc2o1.Cl [SB-334867, 1-(2-methylbenzoxazol-6-yl)-3-[1], [5]naphthyridin-4-yl-urea hydrochloride] | 118.5 | 70 | 30.4 | 92.3 | 102.4 | 73.1 | 78.5 | 96.8 | – | – | –
CNC(=O)[C@@H](c1ccccc1)N1CCc2cc(OC)c(OC)cc2[C@@H]1CCc1ccc(C(F)(F)F)cc1 [almorexant, (2R)-2-[(1S)-6,7-Dimethoxy-1-[2-(4-trifluoromethyl-phenyl)-ethyl]-3,4-dihydro-1H-isoquinolin-2-yl]-N-methyl-2-phenyl-acetamide] | – | – | – | – | – | – | – | – | 9.05 | 4 and 6 | 0.28
